The text below walks through data of paper PMC11645267, “Novel pharmacologic inhibition of lysine-specific demethylase 1 as a potential therapeutic for glioblastoma” (Cancer Gene Therapy, 2024).

Assay [1] has as its system GSC1228, GSC222, and GSC316. The experiment in a line: Western blot of global histone modifications. The format is cell-based. Particulars: 5 μM, 96 h; changes not statistically significant. Here is the method:
The effects of S2172 on global histone modifications in GSCs were examined using western blot analysis. GSC cells were treated with 5 μM of S2172 since […] of the cells are still viable at this concentration (Fig. 2, Supplementary Fig. S1E). […] Treatment of GSCs with S2172 increased the overall levels of H3K4me2 as well as H3K9me2. However, these changes were not statistically significant (Fig. 2A, B).
Fig. 2 S2172 affected H3K4me2 modifications. A Western blot analysis of H3K4me1, H3K4me2, H3K4me3, H3K9me2, and H3 after treatment with either DMSO or S2172 (5 μM) for 96 h in GSC1228, GSC222, and GSC316. Histone H3 was used as the loading control. B Quantification of band signal intensities from the western blot of A. The y-axis in the panel indicates relative signal intensity of each protein normalized to histone H3. Error bars indicate the SD. […]
(§1) The density of bands was quantified using ImageJ software (https://imagej.nih.gov/ij/). […]
(§2) When mice were scanned with MRI, mice were anesthetized with isoflurane (3% in air) and placed in MRS 3017 Benchtop MRI Systems (MR Solutions, Guildford, UK). Using MRI images, tumor volumes were obtained by compiling tumor areas from all slices that contained tumors and calculated by ImageJ software (https://imagej.nih.gov/ij/) {Towner, […]
Background: Immunoblotting shows a protein as a band on a membrane.

Assay [2] concerns GSC1228 intracranial xenograft. The experiment in a line: Intracranial xenograft mouse model inoculated with GSC1228 cells. The format is in vivo, NOD/SCID mice. The protocol:
All experiments were performed under protocols approved by the Institutional Animal Care and Use Committee of Nagoya University of Graduate School of Medicine. Cells (1 × 10^5 cells per mouse) were injected intracranially into 6-week-old female NOD/SCID mice (n = 20, SLC, Shizuoka, Japan). Four weeks after the injection, S2172 or DMSO were intravenously injected five days a week for 3 weeks (10 mg/kg per day, 15 injections in total). We used established guidelines to determine the sample size for the mouse experiments. The mice were assigned randomly to experimental and control groups. There was no blinding applied in the experiment.
We utilized intracranial xenograft mouse models inoculated with GSC1228 cells. After 30 days of inoculation, we administered S2172 intravenously at 10 mg/kg five times a week for three weeks. […] Following treatment with S2172 for one week, mice were sacrificed, and the xenograft glioma tissues were examined. The H3K4me2 level was increased in the tumor regions treated with S2172 (P < 0.01, Fig. 4B). Consistent with the in vitro analysis, the protein levels of Nestin and SOX2 were decreased in tumor tissues (Fig. 4C).
Fig. 4 S2172 eradicates tumor cells in GSC brain tumor mouse model. A Tumor volume was assessed by MRI after treatment with either DMSO or S2172 for 15 times. Error bars represent the SD. *P < 0.05. n = 7. B H3K4me2 level in the tumor tissue from the mouse brain (left panel). Quantification of western blot band signal intensity (right panel). The y-axis in the panel indicates the relative signal intensity of each protein normalized to histone H3. […] Quantification of western blot band signal intensity (right panel). […]
as §1, §2

Take `NC1CCC(NC2CC2c2cc(F)cc(F)c2OCc2ccccc2)CC1` (stereo not shown) [S2172]: the “overall levels of H3K4me2 and H3K9me2” value in assay [1] is listed as “increased”. In assay [2] (10 mg/kg intravenously five times a week for three weeks, P < 0.05 MRI, P < 0.01 HE), the “tumor area (MRI; HE-stained tissue images)” value is “significantly smaller”. Moreover, the “protein levels of Nestin and SOX2 in tumor tissues” value in assay [2] (after one week of treatment) was “decreased”. Also, in assay [2] (after one week of treatment, P < 0.01), the “H3K4me2 level in tumor regions” value is “increased”.
